Laboratory results taken from paper PMC9551036, “A selective and orally bioavailable VHL-recruiting PROTAC achieves SMARCA2 degradation in vivo” (Nature Communications, 2022).
Values joined by “and” are separate entries in the source; they are usually repeats but may differ in a detail not shown here. Identical values can stand only once. Like-named read-outs stand apart in the source and are kept apart here.

Legend:
[1] = Bidirectional permeability measurement in Caco-2 cells; type: in vitro ADME; conditions: human
Procedure, shortened: (§1)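 Compound quantified by LC-MS/MS in samples taken over up to 2 h across 14–21-day Caco-2 monolayers, after 24 h preincubation with 1 µM compound. Runs done without and with 5 µM zosuquidar to probe P-gp. Efflux ratio is the quotient of duplicate-mean Papp,BA over Papp,AB.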

[2] = test system: P-gp; assay: as above; type: in vitro ADME; conditions: human, Caco-2, pH 7.4, with zosuquidar 5 µM; for Papp B→A at 2 h, 1 µM: Modified Caco-2, b to a, + PGPi (Zosuquidar), read-out: Modified Caco-2 Pba + PGPi (Zosuquidar); for Papp A→B at 1 µM: Modified Caco-2 + PGPi (Zosuquidar), read-out: Modified Caco-2 + PGPi (Zosuquidar) Pab
Procedure, shortened: as §1

[3] = Plasma protein binding; type: in vitro ADME
Description: Binding of compound to plasma proteins was determined by equilibrium dialysis of 3 µmol/L compound in plasma (or plasma dilutions in PBS) against PBS through an 8 kDa molecular-weight cut-off cellulose membrane (RED device, Thermo Fisher) at 37 °C for 5 h. After incubation, aliquots from donor and acceptor compartments were precipitated and the concentrations in the supernatants were determined by quantitative LC-MS/MS. Calibration and quality control samples were prepared using blank plasma and internal standard. The fraction unbound was calculated as ratio of the compound concentration in the acceptor compartment to the concentration in the donor compartment.

[4] = Body weight / tolerability in xenograft studies; type: in vivo, mouse
Description: To establish subcutaneous tumours, mice were injected with 5 × 10^6 NCI-H1568 in PBS with 5% FCS or with 1 × 10^7 A549 cells in PBS with 5% FCS. Tumour diameters were measured with a caliper three times a week. The volume of each tumour (in mm^3) was calculated according to the formula [tumour volume = length × diameter^2 × π/6]. To monitor side effects of treatment, mice were inspected daily for abnormalities and body weight was determined daily after the start of treatment. Animals were sacrificed when the tumours reached a size of 1500 mm^3. Mice were randomised into treatment groups when the average tumour size reached ~210–220 mm^3. Group sizes were calculated individually for each tumour model based on tumour growth during model establishment experiments. A power analysis was performed using a sample size calculator (https://www.stat.ubc.ca/~rollin/stats/ssize/n2.html). For both models used in the study, 10 mice per group were used for each experiment. All administrations were dosed with 10 ml/kg (s.c. and oral). Control mice were dosed subcutaneously with 10% HP-β-CD in 50% Ringer solution and orally with 15% HP-β-CD, that means the control mouse treatment was corresponding to the solvent of the compounds. Compound 6 was dosed subcutaneously either in a d1-4 q3d, d6-8 q2d, d11-13 q2d treatment (Treatment 1) or a q3 or 4d treatment (Treatment 2).

[5] = Caco-2, pH 7.4, Caco-2, b to a, read-out: Caco-2 Pba
[6] = Caco-2, pH 7.4, Caco-2, read-out: Caco-2 Efflux ratio
[7] = Caco-2, pH 7.4, Caco-2, read-out: Caco-2 Pab
[8] = Caco-2, pH 7.4, Modified Caco-2, read-out: Modified Caco-2 Pab
[9] = bovine, 10% calf plasma dilution in PBS, 10% calf, fraction unbound, read-out: PPB fu 10% Calf
[10] = bovine, 10% plasma (plasma dilution in PBS), 10% calf, read-out: PPB fu 10% Calf
[11] = human, 10% plasma (plasma dilution in PBS), 10% human, read-out: PPB fu 10% Human
[12] = human, plasma, human, fraction unbound, read-out: PPB fu Human
[13] = mouse, plasma, mouse, fraction unbound, read-out: PPB fu Mouse
[14] = rat, 10% plasma (plasma dilution in PBS), 10% rat, read-out: PPB fu 10% Rat
[15] = rat, plasma, rat, fraction unbound, read-out: PPB fu Rat
[16] = Caco-2, pH 7.4, Modified Caco-2, b to a, read-out: Modified Caco-2 Pba
[17] = Caco-2, pH 7.4, Modified Caco-2, read-out: Modified Caco-2 Efflux ratio

Row | SMILES | Papp B→A at 1 µM [1, 5] | efflux ratio at 2 h, 1 µM [1, 6] | Papp A→B at 1 µM [1, 7] | Papp A→B at 1 µM [1, 8] | PPB fu 10% Calf ([3]; 10% calf) | PPB fu 10% Human ([3]; 10% human) | PPB fu 10% Rat ([3]; 10% rat) | fraction unbound at 5 h, 3 µmol/L [3, 9] | fraction unbound at 5 h, 3 µmol/L [3, 10] | PPB fu 10% Calf ([3]; 10% calf, fraction unbound) | also measured
1 | Nc1cccc2c1c(=O)nc1n(C3CCCC3)c3ccccc3n21 [compound 2] | 17 ×10⁻⁶ cm/s | 0.459 | 37 ×10⁻⁶ cm/s |  |  |  |  |  |  |  | 
2 | Cc1ncsc1-c1ccc([C@H](CCCCCN2CCC(c3ccc4c(c3)n(C3CCCC3)c3nc(=O)c5c(Br)cccc5n43)CC2)NC(=O)[C@@H]2C[C@@H](O)CN2C(=O)[C@@H](NC(=O)C2(F)CC2)C(C)(C)C)cc1 [compound 11] |  |  | 1.4 ± 0.5 ×10⁻⁶ cm/s | 6 ± 3 ×10⁻⁶ cm/s | 0.136% | < 0.043% and < 0.038% | < 0.044% and < 0.048% | 0.0014 | < 0.00092 |  | Papp B→A at 2 h, 1 µM [2]: 24 ×10⁻⁶ cm/s; PPB fu 10% Mouse ([3]; 10% mouse): < 0.038% and < 0.228% and 1.281%; fraction unbound at 5 h, 3 µmol/L [3, 11]: < 0.00049; fraction unbound at 5 h, 3 µmol/L [3, 12]: < 0.0004; fraction unbound at 5 h, 3 µmol/L [3, 13]: < 0.0004; fraction unbound at 5 h, 3 µmol/L [3, 14]: < 0.00047; fraction unbound at 5 h, 3 µmol/L [3, 15]: < 0.0004; tolerability ([4]; NCI-H1568 xenograft efficacy study, body weight changes): well tolerated
3 | Cc1ncsc1-c1ccc([C@H](CC[C@@H](C)CCN2CCC(c3ccc4c(c3)n(C3CCCC3)c3nc(=O)c5c(Br)cccc5n43)CC2)NC(=O)[C@@H]2C[C@@H](O)CN2C(=O)[C@@H](NC(=O)C2(F)CC2)C(C)(C)C)cc1 [compound 29] |  |  |  |  | <0.144% | <0.052% | <0.272% |  |  | <0.14% | PPB fu 10% Mouse ([3]; 10% mouse): <0.335%; PPB fu Human ([3]; human, fraction unbound): <0.05%; PPB fu Mouse ([3]; mouse, fraction unbound): <0.34%; PPB fu Rat ([3]; rat, fraction unbound): <0.27%
4 | CN1CCC(c2ccc3c(c2)n(C2CCCC2)c2nc(=O)c4c(Br)cccc4n32)CC1 [compound 3] | 21.7 ×10⁻⁶ cm/s | 0.768 | 28 ×10⁻⁶ cm/s |  |  |  |  |  |  |  | 
5 | Cc1ncsc1-c1ccc([C@H](COCCN2CCC(c3ccc4c(c3)n(C3CCCC3)c3nc(=O)c5c(Br)cccc5n43)CC2)NC(=O)[C@@H]2C[C@@H](O)CN2C(=O)[C@@H](NC(=O)C2(N(C)C)CC2)C(C)(C)C)cc1 [compound 26] | 15.4 ×10⁻⁶ cm/s |  | < 3 ×10⁻⁶ cm/s |  |  |  |  |  |  |  | 
6 | Cc1ncsc1-c1ccc([C@H](COC(C)CN2CCC(c3ccc4c(c3)n(C3CCCC3)c3nc(=O)c5c(Br)cccc5n43)CC2)NC(=O)[C@@H]2C[C@@H](O)CN2C(=O)[C@@H](NC(=O)C2(N(C)C)CC2)C(C)(C)C)cc1 (some centres unmarked) [compound 10] | 26 ×10⁻⁶ cm/s | 4.64 |  | < 1 ×10⁻⁶ cm/s |  |  |  | 0.05 | 0.0548 |  | Papp B→A at 1 µM [1, 16]: 69 ×10⁻⁶ cm/s; efflux ratio at 2 h, 1 µM [1, 17]: 36.3
7 | Cc1ncsc1-c1ccc([C@H](CCCCN2CCC(c3ccc4c(c3)n(C3CCCC3)c3nc(=O)c5c(Br)cccc5n43)CC2)NC(=O)[C@@H]2C[C@@H](O)CN2C(=O)[C@@H](NC(=O)C2(F)CC2)C(C)(C)C)cc1 [compound 25] |  |  |  |  | 0.731% |  |  |  |  | 0.7% | 
8 | Cc1ncsc1-c1ccc([C@H](COC(C)(C)CN2CCC(c3ccc4c(c3)n(C3CCCC3)c3nc(=O)c5c(Br)cccc5n43)CC2)NC(=O)[C@@H]2C[C@@H](O)CN2C(=O)[C@@H](NC(=O)C2(F)CC2)C(C)(C)C)cc1 [compound 28] |  |  |  |  | 1.857% and 2.316% | <0.224% | <0.231% |  |  | 2 ± 0.3% | PPB fu 10% Mouse ([3]; 10% mouse): <0.219%; PPB fu Human ([3]; human, fraction unbound): <0.2%; PPB fu Mouse ([3]; mouse, fraction unbound): <0.2%; PPB fu Rat ([3]; rat, fraction unbound): <0.2%
9 | Cc1ncsc1-c1ccc(C(CCC(C)CCN2CCC(c3ccc4c(c3)n(C3CCCC3)c3nc(=O)c5c(Br)cccc5n43)CC2)NC(=O)C2CC(O)CN2C(=O)C(NC(=O)C2(F)CC2)C(C)(C)C)cc1 (centres unmarked) [ACBI2] |  |  | 2 ± 0.2 ×10⁻⁶ cm/s | 9 ± 9 ×10⁻⁶ cm/s |  | < 0.054% | < 0.053% and < 0.048% | 0.0035 | 0.00349 |  | Papp A→B at 1 µM [2]: 8 ± 4 ×10⁻⁶ cm/s; Papp B→A at 2 h, 1 µM [2]: 11 ×10⁻⁶ cm/s; fraction unbound at 5 h, 3 µmol/L [3, 11]: < 0.00045; fraction unbound at 5 h, 3 µmol/L [3, 12]: < 0.0005; fraction unbound at 5 h, 3 µmol/L ([3]; mouse, 10% plasma (plasma dilution in PBS), 10% mouse, read-out: PPB fu 10% Mouse): < 0.00051; fraction unbound at 5 h, 3 µmol/L [3, 13]: < 0.0005; fraction unbound at 5 h, 3 µmol/L [3, 14]: < 0.00054; fraction unbound at 5 h, 3 µmol/L [3, 15]: < 0.0005; tolerability ([4]; A549 xenograft, 80 mg/kg p.o. once daily): well tolerated
10 | Cc1ncsc1-c1ccc([C@H](CC[C@H](C)CCN2CCC(c3ccc4c(c3)n(C3CCCC3)c3nc(=O)c5c(Br)cccc5n43)CC2)NC(=O)[C@@H]2C[C@H](O)CN2C(=O)[C@@H](NC(=O)C2(F)CC2)C(C)(C)C)cc1 [compound 12] | 8.5 ×10⁻⁶ cm/s |  |  |  |  |  |  |  |  |  | Papp A→B at 1 µM ([1]; Caco-2, pH 7.4, Caco-2, a to b, read-out: Caco-2 Pab): 3.4 ×10⁻⁶ cm/s
11 | Cc1ncsc1-c1ccc([C@H](CCC(C)(C)CCN2CCC(c3ccc4c(c3)n(C3CCCC3)c3nc(=O)c5c(Br)cccc5n43)CC2)NC(=O)[C@@H]2C[C@@H](O)CN2C(=O)[C@@H](NC(=O)C2(F)CC2)C(C)(C)C)cc1 [compound 30] |  |  |  |  | <0.071% |  |  |  |  | <0.07% | 
12 | O=c1nc2n(C3CCCC3)c3ccccc3n2c2cccc(Br)c12 [compound 1] | 23.9 ×10⁻⁶ cm/s | 0.774 | 31 ×10⁻⁶ cm/s |  |  |  |  |  |  |  | 
13 | Cc1ncsc1-c1ccc([C@H](COC(C)CN2CCC(c3ccc4c(c3)n(C3CCCC3)c3nc(=O)c5c(Br)cccc5n43)CC2)NC(=O)[C@@H]2C[C@@H](O)CN2C(=O)[C@@H](NC(=O)C2(F)CC2)C(C)(C)C)cc1 (some centres unmarked) [compound 9] | 34 ×10⁻⁶ cm/s |  | 6 ± 2 ×10⁻⁶ cm/s | 4 ± 2 ×10⁻⁶ cm/s | 8.695% |  |  | 0.07 ± 0.02 | 0.0538 |  | Papp B→A at 1 µM [1, 16]: 170 ×10⁻⁶ cm/s; efflux ratio at 2 h, 1 µM [1, 17]: 44.8; Papp A→B at 1 µM [2]: 12 ± 2 ×10⁻⁶ cm/s; Papp B→A at 2 h, 1 µM [2]: 19 ×10⁻⁶ cm/s
